Laboratory results as given in US8445676B2, “Pyrrolotriazine kinase inhibitors” (Bristol-Myers Squibb Company, priority 2008, dated 2013).

Molecular target: JAK2 (Homo sapiens, UniProt O60674)
Experiment: JAK2 Tyrosine Kinase Assay
Format: biochemical
Conditions: list of named compounds; read-out: IC50 in the JAK2 assay
Protocol: JAK2 Tyrosine Kinase Assay
The assays were performed in V-bottom 384-well plates. […] The reaction was initiated by the combination of JAK2 with substrates and test compounds. The reaction was incubated at room temperature for 60 min. and terminated by adding 45 μl of 35 mM EDTA to each sample. The reaction mixture was analyzed on the Caliper LabChip 3000 by electrophoretic separation of the fluorescent substrate and phosphorylated product. […] Compounds were dissolved at 10 mM in dimethylsulfoxide (DMSO) and evaluated at eleven concentrations, each in duplicate. IC50 values were derived by non-linear regression analysis

JAK2, sequence (O60674 whole entry): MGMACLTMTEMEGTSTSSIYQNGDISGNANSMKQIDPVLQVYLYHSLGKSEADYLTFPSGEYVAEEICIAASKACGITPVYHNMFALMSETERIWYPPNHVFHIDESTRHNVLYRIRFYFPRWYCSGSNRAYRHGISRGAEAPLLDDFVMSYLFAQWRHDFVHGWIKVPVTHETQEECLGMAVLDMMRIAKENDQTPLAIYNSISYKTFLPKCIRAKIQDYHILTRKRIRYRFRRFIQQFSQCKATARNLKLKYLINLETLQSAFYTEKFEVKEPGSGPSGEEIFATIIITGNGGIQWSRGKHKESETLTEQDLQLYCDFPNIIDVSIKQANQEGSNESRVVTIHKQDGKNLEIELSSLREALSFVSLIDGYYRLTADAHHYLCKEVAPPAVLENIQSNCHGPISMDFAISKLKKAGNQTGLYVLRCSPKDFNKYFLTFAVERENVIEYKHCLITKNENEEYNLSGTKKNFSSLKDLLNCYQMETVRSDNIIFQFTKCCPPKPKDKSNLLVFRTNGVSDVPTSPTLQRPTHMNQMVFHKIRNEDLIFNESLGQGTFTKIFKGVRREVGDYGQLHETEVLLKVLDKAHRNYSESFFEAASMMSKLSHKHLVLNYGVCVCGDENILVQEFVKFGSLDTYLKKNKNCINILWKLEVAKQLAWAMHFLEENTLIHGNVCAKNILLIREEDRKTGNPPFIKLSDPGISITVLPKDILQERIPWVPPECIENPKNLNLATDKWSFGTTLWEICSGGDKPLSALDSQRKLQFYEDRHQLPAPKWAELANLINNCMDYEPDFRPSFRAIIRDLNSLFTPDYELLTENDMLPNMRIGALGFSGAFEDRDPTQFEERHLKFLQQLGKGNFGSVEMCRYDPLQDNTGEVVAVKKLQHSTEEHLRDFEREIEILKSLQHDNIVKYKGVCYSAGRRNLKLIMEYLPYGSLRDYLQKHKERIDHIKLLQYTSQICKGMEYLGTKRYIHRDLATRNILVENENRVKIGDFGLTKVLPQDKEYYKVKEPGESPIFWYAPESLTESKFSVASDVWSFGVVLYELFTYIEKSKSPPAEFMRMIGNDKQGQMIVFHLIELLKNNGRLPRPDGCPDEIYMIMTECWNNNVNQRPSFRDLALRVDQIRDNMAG

Row | SMILES | IC50
1 | Cc1cc(Nc2nc(N3CCN(C(=O)C(O)c4c(F)cccc4F)CC3)nn3cccc23)n[nH]1 (stereo not shown) [1-(2,6-difluorophenyl)-2-(4-(4-((5-methyl-1H-pyrazol-3-yl)amino)pyrrolo[2,1-f][1,2,4]triazin-2-yl)-1-piperazinyl)-2-oxoethanol] | ≤ 5 nM
2 | Cc1cc(Nc2nc(N3CCN(C(=O)C(O)c4ccccc4F)CC3)nn3cccc23)n[nH]1 (stereo not shown) [1-(2-fluorophenyl)-2-(4-(4-((5-methyl-1H-pyrazol-3-yl)amino)pyrrolo[2,1-f][1,2,4]triazin-2-yl)-1-piperazinyl)-2-oxoethanol] | ≤ 5 nM
3 | Cc1cc(Nc2nc(N3CCN(C(=O)C(O)c4ccc(Cl)cc4)CC3)nn3cccc23)n[nH]1 (stereo not shown) [1-(4-chlorophenyl)-2-(4-(4-((5-methyl-1H-pyrazol-3-yl)amino)pyrrolo[2,1-f][1,2,4]triazin-2-yl)-1-piperazinyl)-2-oxoethanol] | ≤ 5 nM
4 | Cc1cc(Nc2nc(N3CCN(C(=O)C(O)c4ccc(F)cc4)CC3)nn3cccc23)n[nH]1 (stereo not shown) [1-(4-fluorophenyl)-2-(4-(4-((5-methyl-1H-pyrazol-3-yl)amino)pyrrolo[2,1-f][1,2,4]triazin-2-yl)-1-piperazinyl)-2-oxoethanol] | ≤ 5 nM
5 | Cc1cc(Nc2nc(N3CCN(C(=O)C4(C#N)CC4)CC3)nn3cccc23)n[nH]1 [1-((4-(4-((5-methyl-1H-pyrazol-3-yl)amino)pyrrolo[2,1-f][1,2,4]triazin-2-yl)-1-piperazinyl)carbonyl)cyclopropanecarbonitrile] | ≤ 5 nM
6 | Cc1cc(Nc2nc(N3CCN(C(=O)Cc4ccccc4C#N)CC3)nn3cccc23)n[nH]1 [2-(2-(4-(4-((5-methyl-1H-pyrazol-3-yl)amino)pyrrolo[2,1-f][1,2,4]triazin-2-yl)-1-piperazinyl)-2-oxoethyl)benzonitrile] | ≤ 5 nM
7 | CCC(C)(C)C(=O)N1CCN(c2nc(Nc3cc(C)[nH]n3)c3cccn3n2)CC1 [2-(4-(2,2-dimethylbutanoyl)-1-piperazinyl)-N-(5-methyl-1H-pyrazol-3-yl)pyrrolo[2,1-f][1,2,4]triazin-4-amine] | ≤ 5 nM
8 | Cc1cc(Nc2nc(N3CCN(C(=O)c4ccc(Cl)cc4Cl)CC3)nn3cccc23)n[nH]1 [2-(4-(2,4-dichlorobenzoyl)-1-piperazinyl)-N-(5-methyl-1H-pyrazol-3-yl)pyrrolo[2,1-f][1,2,4]triazin-4-amine] | ≤ 5 nM
9 | Cc1cc(Nc2nc(N3CCN(C(=O)c4cc(Cl)ccc4Cl)CC3)nn3cccc23)n[nH]1 [2-(4-(2,5-dichlorobenzoyl)-1-piperazinyl)-N-(5-methyl-1H-pyrazol-3-yl)pyrrolo[2,1-f][1,2,4]triazin-4-amine] | ≤ 5 nM
10 | Cc1cc(Nc2nc(N3CCN(C(=O)c4cc(C)oc4C)CC3)nn3cccc23)n[nH]1 [2-(4-(2,5-dimethyl-3-furoyl)-1-piperazinyl)-N-(5-methyl-1H-pyrazol-3-yl)pyrrolo[2,1-f][1,2,4]triazin-4-amine] | ≤ 5 nM
11 | Cc1cc(Nc2nc(N3CCN(C(=O)c4ccccc4-c4c(C)n[nH]c4C)CC3)nn3cccc23)n[nH]1 [2-(4-(2-(3,5-dimethyl-1H-pyrazol-4-yl)benzoyl)-1-piperazinyl)-N-(5-methyl-1H-pyrazol-3-yl)pyrrolo[2,1-f][1,2,4]triazin-4-amine] | ≤ 5 nM
12 | Cc1cc(Nc2nc(N3CCN(C(=O)C(C)(C)c4ccc(Cl)cc4)CC3)nn3cccc23)n[nH]1 [2-(4-(2-(4-chlorophenyl)-2-methylpropanoyl)-1-piperazinyl)-N-(5-methyl-1H-pyrazol-3-yl)pyrrolo[2,1-f][1,2,4]triazin-4-amine] | ≤ 5 nM
13 | Cc1cc(Nc2nc(N3CCN(C(=O)C(c4ccc(Cl)cc4)C(C)C)CC3)nn3cccc23)n[nH]1 (stereo not shown) [2-(4-(2-(4-chlorophenyl)-3-methylbutanoyl)-1-piperazinyl)-N-(5-methyl-1H-pyrazol-3-yl)pyrrolo[2,1-f][1,2,4]triazin-4-amine] | ≤ 5 nM
14 | Cc1cc(Nc2nc(N3CCN(C(=O)C(C)c4ccc(Cl)cc4)CC3)nn3cccc23)n[nH]1 (stereo not shown) [2-(4-(2-(4-chlorophenyl)propanoyl)-1-piperazinyl)-N-(5-methyl-1H-pyrazol-3-yl)pyrrolo[2,1-f][1,2,4]triazin-4-amine] | ≤ 5 nM
15 | Cc1cc(Nc2nc(N3CCN(C(=O)c4ccccc4Br)CC3)nn3cccc23)n[nH]1 [2-(4-(2-bromobenzoyl)-1-piperazinyl)-N-(5-methyl-1H-pyrazol-3-yl)pyrrolo[2,1-f][1,2,4]triazin-4-amine] | ≤ 5 nM
16 | Cc1cc(Nc2nc(N3CCN(C(=O)c4cc(F)c(F)cc4Cl)CC3)nn3cccc23)n[nH]1 [2-(4-(2-chloro-4,5-difluorobenzoyl)-1-piperazinyl)-N-(5-methyl-1H-pyrazol-3-yl)pyrrolo[2,1-f][1,2,4]triazin-4-amine] | ≤ 5 nM
17 | Cc1cc(Nc2nc(N3CCN(C(=O)c4c(F)cccc4Cl)CC3)nn3cccc23)n[nH]1 [2-(4-(2-chloro-6-fluorobenzoyl)-1-piperazinyl)-N-(5-methyl-1H-pyrazol-3-yl)pyrrolo[2,1-f][1,2,4]triazin-4-amine] | ≤ 5 nM

Row | SMILES | IC50
18 | Cc1cc(Nc2nc(N3CCN(C(=O)c4c(C)cccc4Cl)CC3)nn3cccc23)n[nH]1 [2-(4-(2-chloro-6-methylbenzoyl)-1-piperazinyl)-N-(5-methyl-1H-pyrazol-3-yl)pyrrolo[2,1-f][1,2,4]triazin-4-amine] | ≤ 5 nM
19 | Cc1cc(Nc2nc(N3CCN(C(=O)c4c(F)cccc4C(F)(F)F)CC3)nn3cccc23)n[nH]1 [2-(4-(2-fluoro-6-(trifluoromethyl)benzoyl)-1-piperazinyl)-N-(5-methyl-1H-pyrazol-3-yl)pyrrolo[2,1-f][1,2,4]triazin-4-amine] | ≤ 5 nM
20 | COc1cccc(F)c1C(=O)N1CCN(c2nc(Nc3cc(C)[nH]n3)c3cccn3n2)CC1 [2-(4-(2-fluoro-6-methoxybenzoyl)-1-piperazinyl)-N-(5-methyl-1H-pyrazol-3-yl)pyrrolo[2,1-f][1,2,4]triazin-4-amine] | ≤ 5 nM
21 | Cc1cc(Nc2nc(N3CCN(C(=O)c4ccccc4F)CC3)nn3cccc23)n[nH]1 [2-(4-(2-fluorobenzoyl)-1-piperazinyl)-N-(5-methyl-1H-pyrazol-3-yl)pyrrolo[2,1-f][1,2,4]triazin-4-amine] | ≤ 5 nM
22 | Cc1cc(Nc2nc(N3CCN(C(=O)c4cccc(Cl)c4)CC3)nn3cccc23)n[nH]1 [2-(4-(3-chlorobenzoyl)-1-piperazinyl)-N-(5-methyl-1H-pyrazol-3-yl)pyrrolo[2,1-f][1,2,4]triazin-4-amine] | ≤ 5 nM
23 | Cc1cc(Nc2nc(N3CCN(C(=O)c4cccc(F)c4)CC3)nn3cccc23)n[nH]1 [2-(4-(3-fluorobenzoyl)-1-piperazinyl)-N-(5-methyl-1H-pyrazol-3-yl)pyrrolo[2,1-f][1,2,4]triazin-4-amine] | ≤ 5 nM
24 | Cc1cc(Nc2nc(N3CCN(C(=O)c4ccoc4)CC3)nn3cccc23)n[nH]1 [2-(4-(3-furoyl)-1-piperazinyl)-N-(5-methyl-1H-pyrazol-3-yl)pyrrolo[2,1-f][1,2,4]triazin-4-amine] | ≤ 5 nM
25 | COc1cccc(C(=O)N2CCN(c3nc(Nc4cc(C)[nH]n4)c4cccn4n3)CC2)c1 [2-(4-(3-methoxybenzoyl)-1-piperazinyl)-N-(5-methyl-1H-pyrazol-3-yl)pyrrolo[2,1-f][1,2,4]triazin-4-amine] | ≤ 5 nM
26 | Cc1cccc(C(=O)N2CCN(c3nc(Nc4cc(C)[nH]n4)c4cccn4n3)CC2)c1 [2-(4-(3-methylbenzoyl)-1-piperazinyl)-N-(5-methyl-1H-pyrazol-3-yl)pyrrolo[2,1-f][1,2,4]triazin-4-amine] | ≤ 5 nM
27 | Cc1cc(Nc2nc(N3CCN(C(=O)c4ccc(F)cc4)CC3)nn3cccc23)n[nH]1 [2-(4-(4-fluorobenzoyl)-1-piperazinyl)-N-(5-methyl-1H-pyrazol-3-yl)pyrrolo[2,1-f][1,2,4]triazin-4-amine] | ≤ 5 nM
28 | COc1ccc(C(=O)N2CCN(c3nc(Nc4cc(C)[nH]n4)c4cccn4n3)CC2)cc1 [2-(4-(4-methoxybenzoyl)-1-piperazinyl)-N-(5-methyl-1H-pyrazol-3-yl)pyrrolo[2,1-f][1,2,4]triazin-4-amine] | ≤ 5 nM
29 | Cc1cc(Nc2nc(N3CCN(C(=O)C4(c5c(F)cccc5Cl)CCCCC4)CC3)nn3cccc23)n[nH]1 [2-(4-((1-(2-chloro-6-fluorophenyl)cyclohexyl)carbonyl)-1-piperazinyl)-N-(5-methyl-1H-pyrazol-3-yl)pyrrolo[2,1-f][1,2,4]triazin-4-amine] | ≤ 5 nM
30 | Cc1ccc(C2(C(=O)N3CCN(c4nc(Nc5cc(C)[nH]n5)c5cccn5n4)CC3)CCCCC2)cc1 [2-(4-((1-(4-methylphenyl)cyclohexyl)carbonyl)-1-piperazinyl)-N-(5-methyl-1H-pyrazol-3-yl)pyrrolo[2,1-f][1,2,4]triazin-4-amine] | ≤ 5 nM
31 | Cc1cc(Nc2nc(N3CCN(C(=O)C4(C)CC4)CC3)nn3cccc23)n[nH]1 [2-(4-((1-methylcyclopropyl)carbonyl)-1-piperazinyl)-N-(5-methyl-1H-pyrazol-3-yl)pyrrolo[2,1-f][1,2,4]triazin-4-amine] | ≤ 5 nM
32 | Cc1cc(Nc2nc(N3CCN(C(=O)Cc4c(Cl)cccc4Cl)CC3)nn3cccc23)n[nH]1 [2-(4-((2,6-dichlorophenyl)acetyl)-1-piperazinyl)-N-(5-methyl-1H-pyrazol-3-yl)pyrrolo[2,1-f][1,2,4]triazin-4-amine] | ≤ 5 nM
33 | Cc1cc(Nc2nc(N3CCN(C(=O)Cc4c(F)cccc4F)CC3)nn3cccc23)n[nH]1 [2-(4-((2,6-difluorophenyl)acetyl)-1-piperazinyl)-N-(5-methyl-1H-pyrazol-3-yl)pyrrolo[2,1-f][1,2,4]triazin-4-amine] | ≤ 5 nM
34 | Cc1cc(Nc2nc(N3CCN(C(=O)Cc4ccccc4Br)CC3)nn3cccc23)n[nH]1 [2-(4-((2-bromophenyl)acetyl)-1-piperazinyl)-N-(5-methyl-1H-pyrazol-3-yl)pyrrolo[2,1-f][1,2,4]triazin-4-amine] | ≤ 5 nM
